Test results published in patent US20240003908A1, “POLYOL BIOMARKERS FOR CONGENITAL DISORDERS OF GLYCOSYLATION” (Mayo Foundation for Medical Education and Research, priority 2020, published 2024).
Several values for one entry are separate records, joined by “and”; a condition that tells them apart may be missing. Equal entries are not always repeated. Marks after values point to notes of the source that are not given here.

Assays:
[1] = tested on: fibroblasts from PMM2-CDG patients; assay: Sorbitol and mannitol levels (GC-MS) in fibroblasts treated with epalrestat for 5 days; assay type: cell-based, human; settings: fibroblasts from 5 PMM2-CDG patients vs 5 healthy controls, 10 μM epalrestat 5 days
Experimental: Metabolomics measurements: Fibroblasts derived from patients carrying selected heterozygous mutations in PMM2 (R141H/F119L, R141H/E139K, R141H/N216I, and R141H/F183S) and healthy controls were cultured according to a protocol described elsewhere (Radenkovic et al., Am J Hum Genet. 2019, 104(5):835-846). Cells were grown in specialized medium and treated with 10 μM epalrestat (Iyer et al., supra) for 5 days with two changes of medium. Non-treated fibroblasts from both groups were used as negative controls. Global metabolomic changes were probed by LC/MS.
Polyols also were analyzed by GC due to the inability of LC/MS to distinguish between the same sized metabolites ([…], GLC1P, GLC6P, sorbitol/mannitol/galactitol, etc.) (Radenkovic et al., supra).

PMM enzyme = PMM enzyme activity in PMM2-CDG patient fibroblasts treated with epalrestat (spectrophotometric); assay type: cell-based, human; settings: for Fold change 5 μM epalrestat (PMM enzyme activity) / Fold change 10 μM epalrestat (PMM enzyme activity) / Fold change 20 μM epalrestat (PMM enzyme activity): 24 hours, baseline = 1; for Highest fold change (PMM enzyme activity): at best dose; for Best dose: of 5, 10, 20 μM
Experimental: Effect of epalrestat on […] enzyme in vitro: Patient-derived and control fibroblasts (GM5381, GM5400; GM5757, GM00038, GM8680, GM01863, GM8400; Coriell Institute, Camden, NJ) were cultured in Minimum Essential Media (MEM; Gibco, Carlsbad, CA; 1 g/L glucose) supplemented with 10% Fetal Bovine Serum (FBS; Gibco), […] (P/S) and maintained in an incubator at 37° C., 5% CO2 in the presence and absence of epalrestat for 24 hours (Iyer et al., Disease Models & Mechanisms 12:11, 2019). Cells were cultured and harvested by trypsinization with 0.05% Trypsin-EDTA (Gibco). PMM and phosphomannose isomerase (MPI) activity were assayed by spectrophotometric measurements (Van Schaftingen and Jaeken, FEBS Lett 377:318-320, 1995). The effects of epalrestat (5 μM, 10 μM, or 20 μM) on PMM-deficient fibroblasts of 11 patients (P1-P6, P8, P10, P17, P19, P24) were evaluated.

ICAM-1 = ICAM-1 protein (immunoblot) and mRNA (RT-qPCR) in PMM-deficient fibroblasts; assay type: cell-based, human; settings: 10 μM epalrestat
Description: (§1) Effect of epalrestat on glycosylation biomarkers in vitro: Immunoblotting and RT-qPCR were used to measure Intercellular Adhesion Molecule 1 (ICAM-1) and Lysosomal Associated Membrane Protein 2 (LAMP-2) protein and mRNA expression levels, respectively, as cellular markers of N-glycosylation (Ferrer et al., Mol Genet Metab 131:424-429, 2020; He et al., J Biol Chem 287:18210-18217, 2012; Eskelinen, Mol Aspects Med 27:495-502, 2006; and Radenkovic et al., Mol Genet Metab 132:27-37, 2021) in 10 PMM-deficient fibroblast lines (P1-P6, P8, P17, P19, and P24) and in control fibroblasts, treated with 10 μM epalrestat (the optimal dose based on PMM enzyme activity as described above).

LAMP-2 = LAMP-2 protein (immunoblot) and mRNA (RT-qPCR) in PMM-deficient fibroblasts; assay type: cell-based, human; settings: 10 μM epalrestat
Description: as §1

[2] = Epalrestat plasma pharmacokinetics (LC-MS/MS) in patient P1; assay type: in vivo, human
Experimental: Pharmacokinetics: Epalrestat plasma concentrations were measured using an LC-MS/MS assay that was validated according to principles outlined in FDA Guidance Documents. Epalrestat-d5 was utilized as the internal standard. The mass spectrometer was coupled to a Waters Acquity H class ultra-performance liquid chromatography system (Milford, MA). Data were acquired and analyzed with Waters MassLynx v4.1 software. The chromatographic separation of epalrestat and the internal standard was accomplished using an Agilent Infinity Lab Poroshell 120 EC-C18 column, 2.1×100 mm, 2.7 μm (ChromTech, Apple Valley, MN) with an Agilent Poroshell 120 EC-C18 precolumn, 2.1×5 mm, 2.7 μm (ChromTech). Plasma samples were analyzed after protein precipitation with methanol, concentration to dryness under nitrogen, and reconstitution in methanol:water (1:1 v/v). Pharmacokinetics were estimated by non-linear least squares regression using the program Phoenix WinNonlin.

concentration at 8 h ([2]; human, plasma, oral, 5 mg, patient P1, after eight hours, read-out: trough level before the next dose): 23.4 ng/mL and 100 nM
AUC ([2]; human, plasma, oral, patient P1, after a 5 mg dose, read-out: systemic exposure (AUC)): 2790 ng·h/mL
half-life ([2]; human, plasma, po, 5 mg, patient P1, oral dose, plasma, read-out: t½ (converted)): ~1.04 h
oral clearance ([2]; patient P1, after a 5 mg dose): 1.8 L/h
time of peak concentration after administration ([2]; patient P1, oral 0.27 mg/kg (5 mg) dose): one
peak concentration in plasma ([2]; patient P1, oral 0.27 mg/kg (5 mg) dose, 0.27 mg/kg): 1125 ng/ml and 3.5 μM
plasma concentration over time profile ([2]; patient P1, oral dose): rapid absorption and elimination
t½ ([2]; patient P1, oral dose, plasma): 1 to 2 h
Structure (SMILES): CC(/C=C1\SC(=S)N(CC(=O)O)C1=O)=C\c1ccccc1 [epalrestat]
sorbitol concentration, mean ratio after treatment ([1]; 1.4 prior to treatment, p=0.00013): 1.25
mannitol concentration, mean ratio after treatment ([1]; 1.5 prior to treatment, p=0.064): 1.2
patient fibroblasts that responded (PMM enzyme; 10 μM epalrestat, 8/10): 80%
increase in PMM enzyme activity (PMM enzyme; fibroblasts of P1, 5 μM epalrestat): 43%
increase in PMM enzyme activity (PMM enzyme; fibroblasts of P2, 10 μM epalrestat): 33%
increase in PMM enzyme activity (PMM enzyme; fibroblasts of P3, 10 μM epalrestat): 35%
increase in PMM enzyme activity (PMM enzyme; fibroblasts of P4, 20 μM epalrestat): 50%
increase in PMM enzyme activity (PMM enzyme; fibroblasts of P5, 5 μM epalrestat): 35%
increase in PMM enzyme activity (PMM enzyme; fibroblasts of P8, 10 μM epalrestat): 16%
increase in PMM enzyme activity (PMM enzyme; fibroblasts of P10, 5 μM epalrestat): 22%
increase in PMM enzyme activity (PMM enzyme; fibroblasts of P17, 20 μM epalrestat): 10%
increase in PMM enzyme activity (PMM enzyme; fibroblasts of P19, 20 μM epalrestat): 20%
increase in PMM enzyme activity (PMM enzyme; fibroblasts of P24, 10 μM epalrestat): 36%
Fold change 5 μM epalrestat (PMM enzyme activity) (PMM enzyme; fibroblasts of subject P1, 5 μM): 1.43
Fold change 10 μM epalrestat (PMM enzyme activity) (PMM enzyme; fibroblasts of subject P1): 1.2
Fold change 20 μM epalrestat (PMM enzyme activity) (PMM enzyme; fibroblasts of subject P1): 1.2
Highest fold change (PMM enzyme activity) (PMM enzyme; fibroblasts of subject P1): 1.43*
Best dose (PMM enzyme; fibroblasts of subject P1): 5 µM
Fold change 5 μM epalrestat (PMM enzyme activity) (PMM enzyme; fibroblasts of subject P2, 5 μM): 1.01
Fold change 10 μM epalrestat (PMM enzyme activity) (PMM enzyme; fibroblasts of subject P2): 1.33
Fold change 20 μM epalrestat (PMM enzyme activity) (PMM enzyme; fibroblasts of subject P2): 0.7
Highest fold change (PMM enzyme activity) (PMM enzyme; fibroblasts of subject P2): 1.33
Best dose (PMM enzyme; fibroblasts of subject P2): 10 µM
Fold change 5 μM epalrestat (PMM enzyme activity) (PMM enzyme; fibroblasts of subject P3, 5 μM): 0.86
Fold change 10 μM epalrestat (PMM enzyme activity) (PMM enzyme; fibroblasts of subject P3): 1.35
Fold change 20 μM epalrestat (PMM enzyme activity) (PMM enzyme; fibroblasts of subject P3): 0.9
Highest fold change (PMM enzyme activity) (PMM enzyme; fibroblasts of subject P3): 1.35
Best dose (PMM enzyme; fibroblasts of subject P3): 10 µM
Fold change 5 μM epalrestat (PMM enzyme activity) (PMM enzyme; fibroblasts of subject P4, 5 μM): 1.26
Fold change 10 μM epalrestat (PMM enzyme activity) (PMM enzyme; fibroblasts of subject P4): 1.36
Fold change 20 μM epalrestat (PMM enzyme activity) (PMM enzyme; fibroblasts of subject P4): 1.5
Highest fold change (PMM enzyme activity) (PMM enzyme; fibroblasts of subject P4): 1.36
Best dose (PMM enzyme; fibroblasts of subject P4): 10 µM
Fold change 5 μM epalrestat (PMM enzyme activity) (PMM enzyme; fibroblasts of subject P5, 5 μM): 1.35
Fold change 10 μM epalrestat (PMM enzyme activity) (PMM enzyme; fibroblasts of subject P5): 0.93
Fold change 20 μM epalrestat (PMM enzyme activity) (PMM enzyme; fibroblasts of subject P5): 0.9
Highest fold change (PMM enzyme activity) (PMM enzyme; fibroblasts of subject P5): 1.35
Best dose (PMM enzyme; fibroblasts of subject P5): 5 µM
Fold change 5 μM epalrestat (PMM enzyme activity) (PMM enzyme; fibroblasts of subject P6, 5 μM): 0.98
Fold change 10 μM epalrestat (PMM enzyme activity) (PMM enzyme; fibroblasts of subject P6): 0.97
Fold change 20 μM epalrestat (PMM enzyme activity) (PMM enzyme; fibroblasts of subject P6): 0.6
Fold change 5 μM epalrestat (PMM enzyme activity) (PMM enzyme; fibroblasts of subject P8, 5 μM): 1.07
Fold change 10 μM epalrestat (PMM enzyme activity) (PMM enzyme; fibroblasts of subject P8): 1.16
Fold change 20 μM epalrestat (PMM enzyme activity) (PMM enzyme; fibroblasts of subject P8): 1.1
Highest fold change (PMM enzyme activity) (PMM enzyme; fibroblasts of subject P8): 1.16
Best dose (PMM enzyme; fibroblasts of subject P8): 10 µM
Fold change 5 μM epalrestat (PMM enzyme activity) (PMM enzyme; fibroblasts of subject P10, 5 μM): 1.22
Fold change 10 μM epalrestat (PMM enzyme activity) (PMM enzyme; fibroblasts of subject P10): 1.16
Fold change 20 μM epalrestat (PMM enzyme activity) (PMM enzyme; fibroblasts of subject P10): 1.2
Highest fold change (PMM enzyme activity) (PMM enzyme; fibroblasts of subject P10): 1.22
Best dose (PMM enzyme; fibroblasts of subject P10): 5 µM
Fold change 5 μM epalrestat (PMM enzyme activity) (PMM enzyme; fibroblasts of subject P17, 5 μM): 0.9
Fold change 10 μM epalrestat (PMM enzyme activity) (PMM enzyme; fibroblasts of subject P17): 0.75
Fold change 20 μM epalrestat (PMM enzyme activity) (PMM enzyme; fibroblasts of subject P17): 1.1
Highest fold change (PMM enzyme activity) (PMM enzyme; fibroblasts of subject P17): 1.1
Best dose (PMM enzyme; fibroblasts of subject P17): 20 µM
Fold change 5 μM epalrestat (PMM enzyme activity) (PMM enzyme; fibroblasts of subject P19, 5 μM): 0.84
Fold change 10 μM epalrestat (PMM enzyme activity) (PMM enzyme; fibroblasts of subject P19): 1.1
Fold change 20 μM epalrestat (PMM enzyme activity) (PMM enzyme; fibroblasts of subject P19): 1.2
Highest fold change (PMM enzyme activity) (PMM enzyme; fibroblasts of subject P19): 1.2
Best dose (PMM enzyme; fibroblasts of subject P19): 20 µM
Fold change 5 μM epalrestat (PMM enzyme activity) (PMM enzyme; fibroblasts of subject P24, 5 μM): 0.78
Fold change 10 μM epalrestat (PMM enzyme activity) (PMM enzyme; fibroblasts of subject P24): 1.36
Fold change 20 μM epalrestat (PMM enzyme activity) (PMM enzyme; fibroblasts of subject P24): 0.9
Highest fold change (PMM enzyme activity) (PMM enzyme; fibroblasts of subject P24): 1.36
Best dose (PMM enzyme; fibroblasts of subject P24): 10 µM
increase in PMM enzyme activity (PMM enzyme; nine out of ten patients, 5 μM, 10 μM or 20 μM epalrestat): ≥ 10%
maximal increase in PMM activity (PMM enzyme; patient fibroblasts, with at least one of 5, 10, 20 μM): ≤ 50%
ICAM-1 mRNA expression (ICAM-1): no effect
LAMP-2 mRNA expression (LAMP-2): no effect
